From patent US5434247A, “Peptides for inducing monocyte cytotoxicity in diagnostics” (Board of Regents, The University of Texas System, priority 1992, dated 1995)
“Also recorded” adds a separate entry of the source. Where two headings read alike, the source gives them in different places. *1 amine or outer side, *2 acyl side, *3 side chain or, on linkers, in order; H or OH if unused. Where a SMILES comes first, the peptide text is derived from it. Bridges are numbered along the chain shown (N, C = ends). Roman numbers before positions name the chains, in order. Where no end group is shown, it is not given here. [ ]: non-standard residue; d: D form. Actinocin(9to1) = Cc1c2oc3c(C)ccc(C(=O)[*:1])c3nc-2c(C(=O)[*:2])c(N)c1=O; NMeV = CN[C@H](C(=O)O)C(C)C; Sar = CNCC(=O)O

Experiments:
FtF3 cells = assay: Effects of metabolic inhibitors and tunicamycin on MCF production; type: cell-based, human; conditions: for effect on MCF production of PHA-stimulated FtF3 cells: cells incubated 4 h with inhibitor (0 to 100 ug/ml), washed, PHA 24 h; for effect on MCF production of nonstimulated (non-PHA treated) cells: puromycin at doses of 10-50 ug/ml; for biological activity of MCF after biosynthesis in the presence of the agent: tunicamycin 0, 1, 2.5 or 5.0 ug/ml
Description: (§1) FIG. 2. FtF3 cells were incubated 4 h with various doses of actinomycin D. Cells were washed and stimulated with PHA for 24 h before harvesting supernatants by centrifugation, extensive dialysis, and bioassay.( ) One set of each dose of inhibitor-treated cells was labelled with ^3 H-uridine, stimulated, lysed and harvested 24 h later, and counted by liquid scintillation.(.quadrature.) Viability of FtF3 at 24 h was greater than 80% at all doses tested.
as §1, with “3.” for “2.”, “cycloheximide.” for “actinomycin D.”, “3 H-amino acids,” for “^3 H-uridine,”, “TCA-precipitated” for “lysed and harvested”
FIG. 4. FtF3 cells were incubated 4 h with various doses of puromycin. Cells were washed and resuspended either with ( ) or without (.quadrature.) PHA, and incubated 24 h before harvesting supernatants by centrifugation, extensive dialysis, and bioassay. Viability of FtF3 at 24 h was greater than 80% at all doses tested.
Urea treatment was accomplished by adding 3 grams of solid urea to 10 ml MCF (28.5 U/ml) (5M urea final). Extraction of MCF with butanol-diisopropyl ether was performed. FtF3 cells were cultured with 0, 1, 2.5 or 5.0 ug/ml tunicamycin. […] MCF supernatants were extracted with butanol-diisopropyl ether; the aqueous phase contained 36.7% less MCF than the control preparation.
FtF3 cells at a concentration of 1×10^6 /ml in RPMI 1640/10% FCS were incubated 4 hours with either actinomycin D, cycloheximide, or puromycin (all at 0 to 100 ug/ml, Sigma). Tests for viability after treatment were performed by trypan blue exclusion and supernatants were collected by centrifugation. In a second set of experiments FtF3 cells at the same concentration but using 0.1% human serum were incubated for 5 hours with either cycloheximide or puromycin. Uptake experiments were performed by adjusting FtF3 cells to 1×10^6 /ml in media after treatment with inhibitor, and adding either 5,6-^3 H-uridine (ICN Radiochemicals, Irvine, Calif., USA, […]) to actinomycin D treated cells or ^3 H L-amino acid mixture (25.5 mci/mg) to cycloheximide-treated cells at 1 uCi to 1×10^5 cells. Cells were subsequently lysed and counted by liquid scintillation.

human monocytes / K562 = assay: Human monocyte cytotoxicity assay (MCF assay), 111In-Ox labeled K562 targets; type: cell-based; conditions: for monocyte cytotoxicity inducing activity (in words) / concentration at which the peptide activates human blood monocytes for cytotoxicity: K562 target; for concentration at which the peptide activates human blood monocytes for cytotoxicity: purified peptide, monocytes of eight human donors
Description: FIG. 1. Hybrid cells were adjusted to 1×10^6 /ml and stimulated with 8 ug/ml PHA(+). […] to control (-) cultures, and both supernatants harvested by centrifugation. Monocyte cytotoxicity was measured as described herein with the exception that the monocyte monolayer was incubated overnight to allow for decay of NK cell activity. The monolayer was incubated for a second 24 hr period with dilutions of MCF containing supernatants. Dilutions represented are 1/4 in a total test volume of 0.2 ml. […] Microtiter plates were centrifuged 16 hrs later, and supernatants collected and counted. % specific release was calculated as described herein.
Only healthy volunteer donors were used. All volunteer donors signed an informed consent, and the protocol was approved by the Committee for the Protection of Human Subjects, University of Texas Health Science Center. Mononuclear cells were prepared by centrifugation over Ficoll/Hypaque. […] The monolayer was incubated overnight to allow for decay of residual natural killer activity before addition of lymphokine preparations on day 2.
The effector to target ratio was 30:1. […] After 18 hrs incubation of monocyte monolayer with target, the plates were centrifuged and supernatant was removed and cpms were counted in a Beckman Biogamma 2000. Specific release was calculated as described by Wiltrout, supra. […] Other tumor targets used were HL-60, L5178Y and TU5 (Table V).

[1] = Enzyme treatment of MCF supernatants; type: physicochemical; conditions: in contrast to MCF
Description: In order to treat MCF supernatants with enzymes, 10 ml of the supernatant (28.5 units/ml) were treated with 1 mg/ml trypsin at pH 7.4, 1 mg/ml chymotrypsin at pH 7.4, 0.5 mg/ml DNase at pH 7.4, or 40 units/ml RNase at pH 5 for 1 hour at 25° C. […] The experiments were repeated using insolubilized enzymes to minimize the possibility that enzymes could be carried over into the bioassay and could explain the results.

[2] = all doses tested, trypan blue exclusion

COc1ccc(C[C@H](N)C(=O)N[C@H]2[C@@H](O)[C@H](n3cnc4c(N(C)C)ncnc43)O[C@@H]2CO)cc1 [puromycin]
Viability of FtF3 at 24 h (FtF3 cells): greater than 80%
lectin-induced MCF production with inhibitor present for the entire incubation period (FtF3 cells): suppressive in a dose-dependent manner
effect on MCF production of PHA-stimulated FtF3 cells (FtF3 cells): suppressed but did not totally abolish
effect on MCF production of nonstimulated (non-PHA treated) cells (FtF3 cells): appeared to stimulate

rIL1β: recombinant IL 1 beta (Cistron Biotechnology) [reference compound]
% specific lysis (human monocytes / K562; cytokine added at 0.1 U/ml): -8.7 ± 2.8%
% specific lysis (human monocytes / K562; cytokine added at 1 U/ml): -4.9 ± 4.6%
% specific lysis (human monocytes / K562; cytokine added at 10 U/ml): -1.8 ± 9.6%

IFN-α [reference compound]
% specific lysis (human monocytes / K562; cytokine added at 1 U/ml): 4.5 ± 3.0%
% specific lysis (human monocytes / K562; cytokine added at 10 U/ml): -5.4 ± 9.2%
% specific lysis (human monocytes / K562; cytokine added at 100 U/ml): -2.1 ± 12.4%
% specific lysis (human monocytes / K562; cytokine added at 1000 U/ml): -8.9 ± 8.8%

C[C@@H]1C[C@@H]([C@H](O)CC2CC(=O)NC(=O)C2)C(=O)[C@@H](C)C1 [cycloheximide]
lectin-induced MCF production with inhibitor present for the entire incubation period (FtF3 cells): not suppressed
Viability of FtF3 at 24 h (FtF3 cells; [2]): greater than 80%
effect on MCF production of PHA-stimulated FtF3 cells (FtF3 cells): suppressed but did not abolish
effect on MCF production of nonstimulated (non-PHA treated) cells (FtF3 cells): only a slight stimulatory effect

GAAVLENSQ [MJ-1]
monocyte cytotoxicity inducing activity (in words) (human monocytes / K562): capable of inducing human monocyte cytotoxicity; also recorded: found to have biological MCF activity
decrease in the biological activity of the peptide by the substitution, versus MJ-2 (human monocytes / K562; parallel assays, same human donors): ~3 log fold
concentration at which the peptide activates human blood monocytes for cytotoxicity (human monocytes / K562): 10^-6 M

Gly Ala Ala Val Leu (GAAVL; printed: Gly Ala Ala Val Leu) [MJ-3, truncated five-mer, native 5 N-terminal amino acids of P29]
monocyte cytotoxicity inducing activity (in words) (human monocytes / K562): not determined to be above the background for the assay
monocyte cytotoxicity inducing activity (in words) (human monocytes / K562; listed as MJ3): did not reliably exhibit biological activity
specific release of label (human monocytes / K562; one experiment, input of 10^2 mg of protein): 25%

GAAVLEDSQ [MJ-2]
monocyte cytotoxicity inducing activity (in words) (human monocytes / K562): exhibits the same high level activity as the intact protein of 29kD; also recorded: capable of activating human blood monocytes for tumor cytotoxicity; also recorded: to a similar extent as the intact protein of 29kD
concentration at which the peptide activates human blood monocytes for cytotoxicity (human monocytes / K562): approximately 10^-9 M

Cc1c2oc3c(C)ccc(C(=O)N[C@@H]4C(=O)N[C@H](C(C)C)C(=O)N5CCC[C@H]5C(=O)N(C)CC(=O)N(C)[C@@H](C(C)C)C(=O)O[C@@H]4C)c3nc-2c(C(=O)N[C@@H]2C(=O)N[C@H](C(C)C)C(=O)N3CCC[C@H]3C(=O)N(C)CC(=O)N(C)[C@@H](C(C)C)C(=O)O[C@@H]2C)c(N)c1=O [actinomycin D] (I: T[dV]P[Sar][NMeV] / II: T[dV]P[Sar][NMeV]; ester I:1-I:C, II:1-II:C; linker I:N-II:N via Actinocin(9to1))
Viability of FtF3 at 24 h (FtF3 cells; [2]): greater than 80%
effect on MCF production of PHA-stimulated FtF3 cells (FtF3 cells): totally suppressed
effect on MCF production of nonstimulated (non-PHA treated) cells (FtF3 cells): no effect

GM-CSF: recombinant GM-CSF [reference compound]
% specific lysis (human monocytes / K562; cytokine added at 50 U/ml): -2.5 ± 15.9%
% specific lysis (human monocytes / K562; cytokine added at 100 U/ml): 5.7 ± 3.1%
% specific lysis (human monocytes / K562; cytokine added at 200 U/ml): -0.6 ± 4.9%

Leu Glu Asp Ser Gln (LEDSQ) [MJ-5]
monocyte cytotoxicity inducing activity (in words) (human monocytes / K562): critical for biological activity

OCCS [2-mercaptoethanol]
biological activity of MCF after biosynthesis in the presence of the agent (FtF3 cells): no significant change

tunicamycin
biological activity of MCF after biosynthesis in the presence of the agent (FtF3 cells): no significant change

B1: IFN-γ: human gamma interferon (protein, UniProt P01579 24-161, looked up)
Interferon gamma: QDPYVKEAENLKKYFNAGHSDVADNGTLFLGILKNWKEESDRKIMQSQIVSFYFKLFKNFKDDQSIQKSVETIKEDMNVKFFNSNKKKRDDFEKLTNYSVTDLNVQRKAIHELIQVMAELSPAAKTGKRKRSQMLFRG
monocyte cytotoxicity inducing activity (in words) (human monocytes / K562): only slight activity
increase in specific lysis (human monocytes / K562; amounts up to 1000 U/ml final concentration): 6.2%
% specific lysis (human monocytes / K562; cytokine added at 10 U/ml): -3.5 ± 1.1%
% specific lysis (human monocytes / K562; cytokine added at 100 U/ml): 3.4 ± 3.2%
% specific lysis (human monocytes / K562; cytokine added at 1000 U/ml): 6.2 ± 4.4%
effect of trypsin [1]: inactivated

B2: eIL1α: recombinant IL 1 alpha (Cistron Biotechnology) (protein, UniProt P01583 113-271, looked up)
Interleukin-1 alpha: SAPFSFLSNVKYNFMRIIKYEFILNDALNQSIIRANDQYLTAAALHNLDEAVKFDMGAYKSSKDDAKITVILRISKTQLYVTAQDEDQPVLLKEMPEIPKTITGSETNLLFFWETHGTKNYFTSVAHPNLFIATKQDYWVCLAGGPPSITDFQILENQA
% specific lysis (human monocytes / K562; cytokine added at 0.1 U/ml): -4.1 ± 4.1%
% specific lysis (human monocytes / K562; cytokine added at 1 U/ml): -3.6 ± 5.6%
% specific lysis (human monocytes / K562; cytokine added at 10 U/ml): -0.7 ± 7.6%

B3: m-CSF: purified m-CSF (protein, UniProt P09603 33-554, looked up)
Macrophage colony-stimulating …: EEVSEYCSHMIGSGHLQSLQRLIDSQMETSCQITFEFVDQEQLKDPVCYLKKAFLLVQDIMEDTMRFRDNTPNAIAIVQLQELSLRLKSCFTKDYEEHDKACVRTFYETPLQLLEKVKNVFNETKNLLDKDWNIFSKNCNNSFAECSSQDVVTKPDCNCLYPKAIPSSDPASVSPHQPLAPSMAPVAGLTWEDSEGTEGSSLLPGEQPLHTVDPGSAKQRPPRSTCQSFEPPETPVVKDSTIGGSPQPRPSVGAFNPGMEDILDSAMGTNWVPEEASGEASEIPVPQGTELSPSRPGGGSMQTEPARPSNFLSASSPLPASAKGQQPADVTGTALPRVGPVRPTGQDWNHTPQKTDHPSALLRDPPEPGSPRISSLRPQGLSNPSTLSAQPQLSRSHSSGSVLPLGELEGRRSTRDRRSPAEPEGGPASEGAARPLPRFNSVPLTDTGHERQSEGSFSPQLQESVFHLLVPSVILVLLAVGGLLFYRWRRRSHQEPQRADSPLEQPEGSPLTQDDRQVELPV
% specific lysis (human monocytes / K562; cytokine added at 17.3 U/ml): 26.0 ± 6.5%
% specific lysis (human monocytes / K562; cytokine added at 173 U/ml): 14.5 ± 4.6%
% specific lysis (human monocytes / K562; cytokine added at 1730 U/ml): -3.9 ± 4.7%
